Legend:
[1] = system: chondrocyte culture (derived from cartilage of rabbit shoulder and knee joints); experiment: Effect of test compounds on proteoglycan depletion in chondrocyte culture (PMA-induced, GAG content); type: cell-based, rabbit (New Zealand white Rabbits); settings: for Relative amount of GAG: control without PMA = 100
Method: The cartilages were sterilely extracted from the shoulder and knee joints of rabbits (New Zealand white Rabbits) (body weight of 1 to 1.5 kg). The cartilages were thoroughly washed with PBS (−) (free of Ca^2+, Mg^2+), Hanks' solution and 0.1% EDTA-PBS (−), and then cut into small segments (1 mm×1 mm×1 mm). After PBS (−) containing 0.1% EDTA was added, the segments were allowed to stand in an incubator of 37° C. for 30 minutes. Then, the segments were treated with a trypsin solution (0.25%) at 37° C. for one hour to remove the connective tissue adhered to the cartilage. After the supernatant had been removed, the cartilages were treated for about 2 to 2.5 hours in a Ham F-12 medium containing 10% fetal bovine serum (FBS) and 0.2% collagenase. Then, the collagenase solution was centrifuged (1500 r.p.m.), and the residual chondrocytes were washed twice with a Ham F-12 medium (chondrocyte culture medium) containing 10% FBS. Finally, the resulting suspension was adjusted so that the chondrocytes were suspended in the concentration of 3×10^5 cells/ml in the chondrocyte culture medium. The chondrocytes were seeded in an amount of 1 ml/well on 24-well plates. The chondrocytes became confluent after 4 days. The experiment were performed within two weeks after reaching the confluent stage.
The chondrocyte culture medium which had been used for cultivating the chondrocytes was removed from each well and 800 μl of fresh serum-free S-Clone medium containing 0.1% human serum albumin was added. Further, 100 μl of S-Clone medium containing the compounds to be tested (containing the compound in the concentration of 10 fold the final concentration; DMSO concentration=2.5%) was added. The chondrocytes were cultured in the presence of carbon dioxide (5%) and air (95%) for 2 hours. Then, the proteoglycan depleting agent, PMA (phorbol myristate acetate) (final concentration=0.1 μg/ml) was added into the culture medium of the chondrocytes.
Proteoglycan depletion was determined by the measurement of the glycosaminoglycan (major constituent of proteoglycan, hereinafter referred to as GAG) content following digestion of the chondrocyte matrix with papain.
After 2 days, the supernatant of the chondrocyte culture was removed. Then, 1 ml of 0.03 […] papaine solution was added to the remaining chondrocyte matrix layer and a reaction was performed at 65° C. for 1 hour to liberate the GAG from the matrix layer. The content of the GAG in the treated papaine solution was determined by the 1,9-dimethylmethylene blue method (refer to R. W. Farndale, Biochim. Biophys. Acta., Vol. 883, pp. 173 to 177, 1986). The GAG content in the chondrocyte matrix of the control test wherein the proteoglycan depleting agent was not added was shown as “100”, and the relative amount of the GAG of each experiment except the control test was calculated by following formula:
GAG relative amount (%)=(B/A)×100
wherein A represents the GAG content of the control tests wherein the proteoglycan depleting agent was not added, and B represents the GAG content wherein the proteoglycan depleting agents were added alone or the GAG content wherein the proteoglycan depleting agents and the compounds to be tested were added.
The GAG content is the value of the mean value ± standard error (n=3 to 6). For each of the compounds to be tested, the control test and the proteoglycan depleting test wherein the proteoglycan depleting agent was added were carried out and the results thereof are also shown. The significance was determined by Student's t-test with respect to the proteoglycan depleting test wherein the proteoglycan depleting agent was added.

BALB/c mice = experiment: Observation for a week after oral administration to BALB/c mice; type: in vivo, mouse; settings: 100 mg/kg
Method: The same results were obtained where hesperidin, acacetin, diosmetin, apigenin, luteolin, or kaempferol was administered.

Mouse = experiment: Acute toxicity, mouse LD50; type: in vivo; settings: intravenous injection
[2] = Acute toxicity, mouse LD50; type: in vivo; settings: in vivo, oral administration
[3] = PMA 0.1 μg/ml + test compound 100 μM, chondrocyte matrix after 2 days, mean ± standard error (n=3 to 6)
[4] = PMA 0.1 μg/ml + test compound 100 μM
[5] = BALB/c mice (female, seven weeks old), oral

Row | abnormalities observed for a week after administration (BALB/c mice; mouse, in vivo, po) | SMILES | GAG content [1, 3] [µg/mL] | Relative amount of GAG [1, 4] | further results
1 | no abnormalities were observed | O=c1cc(-c2ccc(O)cc2)oc2cc(O)cc(O)c12 [No. 5, Apigenin] | 33.3 ± 0.7 | (60.9) % | 
2 | no abnormalities were observed | O=c1cc(-c2ccc(O)c(O)c2)oc2cc(O)cc(O)c12 [No. 8, Luteolin] | 28.6 ± 0.5 | (52.2) % | 
3 |  | COc1ccc(-c2cc(=O)c3c(O)cc(O[C@@H]4O[C@H](CO[C@@H]5O[C@@H](C)[C@H](O)[C@@H](O)[C@H]5O)[C@@H](O)[C@H](O)[C@H]4O)cc3o2)cc1 [No. 12, Linarin] | 19.8 ± 0.7 | (35.8) % | 
4 | no abnormalities were observed | COc1ccc(-c2cc(=O)c3c(O)cc(O)cc3o2)cc1O [No. 13, Diosmetin] | 27.1 ± 0.7 | (49.0) % | 
5 |  | O=c1cc(-c2ccccc2)oc2cc(O)c(O)c(O)c12 [No. 15, Baicalein] | 7.67 ± 0.5 | (68.3) % | 
6 |  | O=c1c(O)c(-c2ccc(O)c(O)c2)oc2cc(O)ccc12 [No. 16, Fisetin] | 30.1 ± 0.9 | (55.7) % | LD50 (Mouse): 180 mg/kg
7 | no abnormalities were observed | O=c1c(O)c(-c2ccc(O)cc2)oc2cc(O)cc(O)c12 [No. 17, Kaempferol] | 30.5 ± 0.3 | (55.7) % | 
8 |  | O=c1c(O)c(-c2ccc(O)c(O)c2)oc2cc(O)cc(O)c12 [No. 22, Quercetin] | 31.0 ± 0.6 | (55.3) % | LD50 [2]: 160 mg/kg
9 |  | COc1ccc([C@@H]2CC(=O)c3c(O)cc(O)cc3O2)cc1O [No. 41, Hesperetin] | 28.7 ± 0.4 | (48.6) % | abnormalities observed for a week after administration (BALB/c mice; [5]): no abnormalities were observed
10 |  | COc1ccc([C@@H]2CC(=O)c3c(O)cc(O[C@@H]4O[C@H](CO[C@@H]5O[C@@H](C)[C@H](O)[C@@H](O)[C@H]5O)[C@@H](O)[C@H](O)[C@H]4O)cc3O2)cc1O [No. 42, Hesperidin] | 24.0 ± 0.6 | (42.8) % | abnormalities observed for a week after administration (BALB/c mice; [5]): no abnormalities were observed
11 |  | COc1ccc2c(c1)c(CC(=O)O)c(C)n2C(=O)c1ccc(Cl)cc1 [indometacin, Indometacin, reference compound] |  |  | Relative amount of GAG ([1]; PMA 0.1 μg/ml + indometacin 10 μM): (47.1) %; GAG content ([1]; PMA 0.1 μg/ml + indometacin 10 μM, mean ± standard error): 13.2 ± 0.6 µg/mL; Relative amount of GAG ([1]; PMA 0.1 μg/ml + indometacin 33 μM): (41.8) %; GAG content ([1]; PMA 0.1 μg/ml + indometacin 33 μM, mean ± standard error): 11.7 ± 0.8 µg/mL

Row | SMILES | abnormalities observed for a week after administration (BALB/c mice; mouse, in vivo, po) | GAG content [1, 3] [µg/mL] | Relative amount of GAG [1, 4] | further results
12 | COc1ccc(-c2cc(=O)c3c(O)cc(O)cc3o2)cc1 [No. 11, Acacetin] | no abnormalities were observed | 24.2 ± 0.3 | (44.8) % | 
